Measured values taken from patent EP0375451A2, “Compounds having a renin-inhibiting activity” (BEECHAM GROUP PLC, priority 1988, dated 1990).
Counter-ions that a name gives are not always drawn.

Target: T1, human renin (Homo sapiens, UniProt P00797)
T1 construct: from tissue; host or cells: human plasma from blood of healthy volunteers
T1 sequence (P00797 67-406): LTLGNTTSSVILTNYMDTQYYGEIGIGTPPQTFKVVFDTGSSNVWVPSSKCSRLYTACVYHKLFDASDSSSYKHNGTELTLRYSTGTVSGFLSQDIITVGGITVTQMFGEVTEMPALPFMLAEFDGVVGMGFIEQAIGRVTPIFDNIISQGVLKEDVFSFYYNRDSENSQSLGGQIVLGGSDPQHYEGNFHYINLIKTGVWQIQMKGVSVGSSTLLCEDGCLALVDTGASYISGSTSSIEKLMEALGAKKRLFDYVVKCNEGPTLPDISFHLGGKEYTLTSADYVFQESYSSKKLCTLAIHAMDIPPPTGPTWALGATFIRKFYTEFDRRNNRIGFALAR
Assay: In vitro human renin inhibition (renin activity in human plasma, angiotensin I radioimmunoassay)
Format: biochemical
Details: not given
Experimental: In vitro human renin inhibition
Renin inhibitory activity was estimated as the percentage change in renin activity in human plasma in the presence and absence of compound. The source of plasma was blood taken from healthy volunteers. Renin activity was defined by the difference in angiotensin I levels between two halves of a sample, one incubated at 37^o and the other at 4^o for 2h. Angiotensin I levels were measured using a ¹²⁵I- angiotensin I radioimmunoassay kit (NEN/DuPont, Stevenage). Results were calculated as the mean of at least two, duplicate determinations and IC₅₀ values were calculated by linear regression analysis of at least three concentrations of compound.

| SMILES | IC50 [nM] |
| --- | --- |
| CC(=O)NCCNC(=O)C[C@H](O)[C@H](CC1CCCCC1)NC(=O)[C@H](CC(C)C)NC(=O)[C@H](Cc1ccccc1)NC(=O)CC1CS(=O)(=O)c2ccccc21 (stereo partly shown) [Example E6] | 87 |
| CC(C)C[C@H](NC(=O)[C@H](Cc1ccccc1)NC(=O)CCn1c(=O)[nH]c2ccccc21)C(=O)N[C@@H](CC1CCCCC1)[C@@H](O)CC(=O)NCCCn1ccnc1 [Example E41, (2,3-Dihydro-2-oxo-1H-benzimidazole-1-propanoyl)-Phe-Leu-ACHPA 3-(1-imidazolyl)propylamide .0.5CHCl₃] | 43 |

Same assay, conditions: human plasma from healthy volunteers; angiotensin I difference between 37° and 4° incubation for 2h; linear regression of at least three concentrations; read-out: IC₅₀

| SMILES | IC50 [nM] |
| --- | --- |
| CC(C)C[C@H](NC(=O)[C@H](Cc1ccccc1)NC(=O)CC1CS(=O)(=O)c2ccccc21)C(=O)N[C@@H](CC1CCCCC1)[C@@H](O)CC(=O)NCCCn1ccnc1 (stereo partly drawn) [El (a), (2,3-Dihydro-1,1-dioxobenzothiophene-3-yl)acetyl-Phe-Leu-ACHPA 3-(1-imidazolyl)propylamide .H₂O] | 15 |
| CC(C)C[C@H](NC(=O)[C@H](Cc1ccccc1)NC(=O)CC1CS(=O)(=O)c2ccccc21)C(=O)N[C@@H](CC1CCCCC1)[C@@H](O)CC(=O)NCCCN1CCCC1=O (stereo partly drawn) [Example E3, (2,3-Dihydro-1,1-dioxobenzothiophene-3-yl)acetyl-Phe-Leu-ACHPA 3-(2-oxopyrrolidin-1-yl) propylamide] | 27 |
| CC(C)C[C@H](NC(=O)[C@H](Cc1ccccc1)NC(=O)CC1COc2ccc(CN)cc21)C(=O)N[C@@H](CC1CCCCC1)[C@@H](O)CC(=O)NCCCn1ccnc1 (stereo partly drawn) [Example E13, (5-(Aminomethyl)-2,3-dihydrobenzofuran-3-yl)acetyl-Phe-Leu-ACHPA 3-(1-imidazolyl)propylamide .2(CF₃CO₂H).H₂O] | 32 |
| CC(C)C[C@H](NC(=O)[C@H](Cc1ccccc1)NC(=O)CC1CS(=O)(=O)c2ccccc21)C(=O)N[C@@H](CC1CCCCC1)[C@@H](O)CC(=O)NCCCCn1ccnc1 (stereo partly drawn) [Example E14, (2,3-Dihydro-1,1-dioxobenzothiophene-3-yl)acetyl-Phe-Leu-ACHPA 4-(1-imidazolyl)butylamide .HCl.2H₂O] | 37 |
| COC(=O)CCCCNC(=O)C[C@H](O)[C@H](CC1CCCCC1)NC(=O)[C@H](CC(C)C)NC(=O)[C@H](Cc1ccccc1)NC(=O)CC1CS(=O)(=O)c2ccccc21 (stereo partly drawn) [Example E18, (2,3-Dihydro-1,1-dioxobenzothiophene-3-yl)acetyl-Phe-Leu-ACHPA-NH(CH₂)CO₂Me.0.5H₂O] | 30 |
| CC(C)C[C@H](NC(=O)[C@H](Cc1ccccc1)NC(=O)CC1CS(=O)(=O)c2ccccc21)C(=O)N[C@@H](CC1CCCCC1)[C@@H](O)CC(=O)NCCCCC(=O)O (stereo partly drawn) [Example E19, (2,3-Dihydro-1,1-dioxobenzothiophene-3-yl)acetyl-Phe-Leu-ACHPA-NH(CH₂)₄CO₂H] | 45 |
| CC(C)C[C@H](NC(=O)[C@H](Cc1ccccc1)NC(=O)CC1CS(=O)(=O)c2ccccc21)C(=O)N[C@@H](CC1CCCCC1)[C@@H](O)CC(=O)NCCN1CCN(C)CC1 (stereo partly drawn) [Example E22, (2,3-Dihydro-1,1-dioxobenzothiophene-3-yl)acetyl-Phe-Leu-ACHPA 2-(4-methylpiperazin-1-yl)ethylamide .2.5H₂O] | 95 |
| CC(C)C[C@H](NC(=O)[C@H](Cc1ccccc1)NC(=O)CCCC1Cc2ccc(N)cc2S1(=O)=O)C(=O)N[C@@H](CC1CCCCC1)[C@@H](O)CC(=O)NCCCn1ccnc1 (stereo partly drawn) [Example E34a, 4-(6-Amino-2,3-dihydro-1,1-dioxobenzothiophene-2-yl)butanoyl-Phe-Leu-ACHPA 3-(1-imidazolyl)propylamide] | 12 |
| CC(C)C[C@H](NC(=O)[C@H](Cc1ccccc1)NC(=O)CC1CS(=O)(=O)c2cc(CN)ccc21)C(=O)N[C@@H](CC1CCCCC1)[C@@H](O)CC(=O)NCCCC(=O)O (stereo partly drawn) [Example E37, (6-(Aminomethyl)-2,3-dihydro-1,1-dioxobenzothiophene-3-yl)acetyl-Phe-Leu-ACHPA-NH(CH₂)₃CO₂H .CF₃CO₂H] | 44 |
| CC(C)C[C@H](NC(=O)[C@H](Cc1ccccc1)NC(=O)CC1CS(=O)(=O)c2ccc(CN)cc21)C(=O)N[C@@H](CC1CCCCC1)[C@@H](O)CC(=O)NCCCn1ccnc1 (stereo partly drawn) [Example E43, (5-(Aminomethyl)-2,3-dihydro-1,1-dioxobenzothiophene-3-yl)acetyl-Phe-Leu-ACHPA 3-(1-imidazolyl)propylamide .3CF₃CO₂H.H₂O] | 12 |
| CC(C)C[C@H](NC(=O)[C@H](Cc1ccccc1)NC(=O)CC1COc2ccc(CNCC(=O)O)cc21)C(=O)N[C@@H](CC1CCCCC1)[C@@H](O)CC(=O)NCCCn1ccnc1 (stereo partly drawn) [Example E44, (5- (Carboxymethylaminomethyl)-2,3-dihydrobenzofuran-3-yl)acetyl-Phe-Leu-ACHPA 3-(1-imidazolyl)propylamide .3(CF₃CO₂H)] | 48 |
| CC(C)C[C@H](NC(=O)[C@H](Cc1ccccc1)NC(=O)CCCC1Cc2ccccc2S1(=O)=O)C(=O)N[C@@H](CC1CCCCC1)[C@@H](O)CC(=O)NCCCn1ccnc1 (stereo partly drawn) [Example E50a, 4-(2,3-Dihydro-1,1-dioxobenzothiophene-2-yl)butanoyl-Phe-Leu-ACHPA 3-(1-imidazolyl)propylamide] | 14 |
| CC(C)C[C@H](NC(=O)[C@H](Cc1ccccc1)NC(=O)CC1CS(=O)(=O)c2cc(CN)ccc21)C(=O)N[C@@H](CC1CCCCC1)[C@@H](O)CC(=O)NCCCn1ccnc1 (stereo partly drawn) [Example E52, (6-(Aminomethyl)-2,3-dihydro-1,1-dioxobenzothiophene-3-yl)acetyl-Phe-Leu-ACHPA 3-(1-imidazolyl)propylamide .3(CF₃CO₂H)] | 20 |

Same assay, conditions: read-out: IC₅₀; human plasma from healthy volunteers; angiotensin I difference between 37° and 4° incubation for 2h; linear regression of at least three concentrations

| SMILES | IC50 [nM] |
| --- | --- |
| CC(C)C[C@H](NC(=O)[C@H](Cc1ccccc1)NC(=O)CC1CS(=O)(=O)c2cc(CNC(=O)OC(C)(C)C)ccc21)C(=O)N[C@@H](CC1CCCCC1)[C@@H](O)CC(=O)NCCCn1ccnc1 (stereo partly shown) [Example E51] | 53 |
